Where two headings read alike, the source gives them in different places.
Legend:
Experiment in all cases: Test Example 13: field plot test, growth inhibition
Assay type in all cases: in vivo
[1] = test system: Common lambsquarters (Chenopodium album L.); settings: 648 h, Example 8 suspension concentrate, 27 days after treatment, field plots, read-out: Growth Inhibition (%) CA; for inhibition at 30 g/ha: Compound A 30 g/ha; for inhibition at 40 g/ha: Compound A 40 g/ha
Excerpt: (§1) In field plots of 4 m² (1 m × 4 m) unit arranged in a duplicate system, seeds of corn, crabgrass (Digitaria sanguinalis L.) common lambsquarters (Chenopodium album L.), slender amaranth (Amaranthus viridis L.), velvetleaf (Abutilon theophrasti MEDIC.) and common cocklebur (Xanthium strumarium L.) were sown and grown. Also, green foxtail (Setaria viridis L.) and barnyardgrass (Echinochloa crus-galli L.) were allowed to grow spontaneously. When the plants grew to certain stages (corn: 4.2 to 6.0-leaf stage, crabgrass: 3.2 to 5.0-leaf stage, common lambsquarters: 3.0 to 6.0-leaf stage, slender amaranth: 2.0 to 5.0-leaf stage, velvetleaf: 1.5 to 4.0-leaf stage, common cocklebur: cotyledonal to 3.5-leaf stage, green foxtail: 3.0 to 5.0-leaf stage and barnyardgrass: 3.0 to 5.0-leaf stage), the oil-based suspension concentrate obtained in Example 8 was diluted with 200 liters/hectare of water containing a predetermined amount of Frigate and was applied foliarly to the plants with a small spray gun.
(§2) Twenty seven days after treatment, the growth inhibition of plants except for corn plants was evaluated with visual observation in the same manner as in Test Example 1 and are shown in Table 13.

[2] = test system: barnyardgrass (Echinochloa crus-galli L.); settings: Example 8 suspension concentrate, 27 days after treatment, field plots; for inhibition at 30 g/ha: Compound A 30 g/ha
Excerpt: as §1, §2

[3] = test system: green foxtail (Setaria viridis L.); settings: Example 8 suspension concentrate, 27 days after treatment, field plots; for inhibition at 40 g/ha: Compound A 40 g/ha
Excerpt: as §1, §2

COc1cc(OC)nc(NC(=O)NS(=O)(=O)c2ncccc2C(=O)N(C)C)n1 [Compound A, N-[(4,6-dimethoxypyrimidin-2-yl)aminocarbonyl]-3-dimethylaminocarbonyl-2-pyridinesulfonamide]
inhibition at 30 g/ha ([1]; Frigate 0.1 % by volume): 80%
inhibition at 40 g/ha ([1]; Frigate 0.1 % by volume): 90%
inhibition at 30 g/ha ([1]; Frigate 0.2 % by volume): 85%
inhibition at 40 g/ha ([1]; Frigate 0.2 % by volume): 90%
inhibition at 30 g/ha ([1]; Frigate: No addition): 45%
inhibition at 40 g/ha ([1]; Frigate: No addition): 65%
inhibition at 50 g/ha ([1]; Frigate: No addition, Compound A 50 g/ha): 65%
inhibition at 40 g/ha ([2]; Echinochloa crus-galli, 648 h, Frigate 0.1 % by volume, Compound A 40 g/ha, read-out: Growth Inhibition (%) EC): 100%
inhibition at 20 g/ha ([2]; Echinochloa crus-galli, 648 h, Frigate 0.2 % by volume, Compound A 20 g/ha, read-out: Growth Inhibition (%) EC): 100%
inhibition at 30 g/ha ([2]; Echinochloa crus-galli, 648 h, Frigate 0.2 % by volume, read-out: Growth Inhibition (%) EC): 100%
inhibition at 40 g/ha ([2]; Echinochloa crus-galli, 648 h, Frigate 0.2 % by volume, Compound A 40 g/ha, read-out: Growth Inhibition (%) EC): 100%
inhibition at 30 g/ha ([2]; Echinochloa crus-galli, 648 h, Frigate: No addition, read-out: Growth Inhibition (%) EC): 65%
inhibition at 40 g/ha ([2]; Echinochloa crus-galli, 648 h, Frigate: No addition, Compound A 40 g/ha, read-out: Growth Inhibition (%) EC): 75%
Growth Inhibition (%) EC ([2]; Frigate: No addition, Compound A 40 g/ha): 60%
Growth Inhibition (%) SV ([3]; Frigate 0.1 % by volume, Compound A 30 g/ha): 40%
inhibition at 40 g/ha ([3]; Setaria viridis, 648 h, Frigate 0.1 % by volume, read-out: Growth Inhibition (%) SV): 70%
inhibition at 20 g/ha ([3]; Setaria viridis, 648 h, Frigate 0.2 % by volume, Compound A 20 g/ha, read-out: Growth Inhibition (%) SV): 60%
inhibition at 30 g/ha ([3]; Setaria viridis, 648 h, Frigate 0.2 % by volume, Compound A 30 g/ha, read-out: Growth Inhibition (%) SV): 65%
inhibition at 40 g/ha ([3]; Setaria viridis, 648 h, Frigate 0.2 % by volume, read-out: Growth Inhibition (%) SV): 75%
inhibition at 30 g/ha ([3]; Setaria viridis, 648 h, Frigate: No addition, Compound A 30 g/ha, read-out: Growth Inhibition (%) SV): 65%
inhibition at 40 g/ha ([3]; Setaria viridis, 648 h, Frigate: No addition, read-out: Growth Inhibition (%) SV): 70%
inhibition at 50 g/ha ([3]; Setaria viridis, 648 h, Frigate: No addition, Compound A 50 g/ha, read-out: Growth Inhibition (%) SV): 80%

— patent EP0598515A1, “Method for herbicidal activity-enhancing, activity-enhanced herbicidal composition and activity-enhancing composition” (ISHIHARA SANGYO KAISHA LTD., priority 1992, dated 1994)
